# From paper PMC5538713, “RORγt and RORα signature genes in human Th17 cells” (PLoS ONE, 2017)
# Like-named read-outs stand apart in the source and are kept apart here.
# Key:
# [1] = target: T1, OP1 (h) (Homo sapiens, UniProt P41143); assay: Cerep selectivity panel; format: binding; conditions: for inhibition at 10 µM: read-out: % Inhibition at 10µM; for inhibition at 1 µM: read-out: % Inhibition at 1µM
# T1 construct: purchased Cerep
# Protocol: (§1) Supplementary file pone.0181868.s003.docx: S3 Table Selectivity profile of RORγt inverse agonists A, B, C and D. Compounds were evaluated at 1 μM and 10 μM in a panel of assays against 50 receptors, ion channels and transporters (Profile service by Cerep Inc.). (DOCX) Click here for additional data file.
# (§2) S3 Table. RORɣt inverse agonists A, B, C and D were evaluated at 1 µM and 10 µM in a panel of assays against 50 receptors, ion channels and transporters (Profile service by Cerep Inc.).
# [2] = target: T2, 5HT2A (h) (Homo sapiens, UniProt P28223); assay: Cerep selectivity panel; format: binding; conditions: read-out: % Inhibition at 10µM
# T2 construct: purchased Cerep
# Protocol: as §1, §2
# [3] = target: T3, V1 a (h) (Homo sapiens, UniProt P37288); assay: Cerep selectivity panel; format: binding; conditions: for inhibition at 10 µM: read-out: % Inhibition at 10µM
# T3 construct: purchased Cerep
# Protocol: as §1, §2
# [4] = target: T4, 5HT3 (h) (Homo sapiens, UniProt P46098); assay: Cerep selectivity panel; format: binding; conditions: for inhibition at 1 µM: read-out: % Inhibition at 1µM; for inhibition at 10 µM: read-out: % Inhibition at 10µM
# T4 construct: purchased Cerep
# T4 sequence (P46098 24-478): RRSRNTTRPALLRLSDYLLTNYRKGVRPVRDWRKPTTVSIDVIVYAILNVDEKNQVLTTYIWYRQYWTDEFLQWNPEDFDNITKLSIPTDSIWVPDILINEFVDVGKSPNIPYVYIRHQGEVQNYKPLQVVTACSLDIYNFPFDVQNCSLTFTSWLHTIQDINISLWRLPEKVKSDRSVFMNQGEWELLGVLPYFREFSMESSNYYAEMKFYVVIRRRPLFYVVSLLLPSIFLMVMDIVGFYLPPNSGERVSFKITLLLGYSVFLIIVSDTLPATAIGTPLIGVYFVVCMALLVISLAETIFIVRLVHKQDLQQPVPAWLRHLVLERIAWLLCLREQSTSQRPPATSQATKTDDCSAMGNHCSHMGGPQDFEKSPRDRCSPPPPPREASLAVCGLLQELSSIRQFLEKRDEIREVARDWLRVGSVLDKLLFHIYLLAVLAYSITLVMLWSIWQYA
# Protocol: as §1, §2
# [5] = target: T5, 5HT2B (h) (Homo sapiens, UniProt P41595); assay: Cerep selectivity panel; format: binding; conditions: for inhibition at 10 µM: read-out: % Inhibition at 10µM
# T5 construct: purchased Cerep
# Protocol: as §1, §2
# [6] = target: T6, Ab1 (h) (Homo sapiens, UniProt P08588); assay: Cerep selectivity panel; format: binding; conditions: for inhibition at 1 µM: read-out: % Inhibition at 1µM; for inhibition at 10 µM: read-out: % Inhibition at 10µM
# T6 construct: purchased Cerep
# Protocol: as §1, §2
# [7] = target: T7, RORβ LBD (Homo sapiens, UniProt Q92753); assay: ThermoFluor binding assay, RORβ LBD
# T7 construct: made in house; host or cells: E. coli BL21DE3 GOLD, pET24a
# T7 sequence (Q92753 201-452 isoform Q92753-1): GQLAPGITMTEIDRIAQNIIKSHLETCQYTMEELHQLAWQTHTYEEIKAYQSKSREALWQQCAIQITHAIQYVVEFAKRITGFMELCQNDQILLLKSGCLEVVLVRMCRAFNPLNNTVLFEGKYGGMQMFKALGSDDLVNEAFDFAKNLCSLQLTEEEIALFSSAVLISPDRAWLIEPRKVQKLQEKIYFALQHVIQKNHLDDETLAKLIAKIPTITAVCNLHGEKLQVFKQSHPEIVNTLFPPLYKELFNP
# Protocol: Recombinant human RORγ, RORα and RORβ LBD proteins were prepared for ThermoFlour binding assay. The nucleotide sequences encoding the ligand binding domains (LBD) of human RORγ (Genbank accession no. NP005051, amino acid 237–497), RORα (Genbank accession no. NP599022, amino acid 304–556), and RORβ (Genbank accession no. NP008845, amino acid 201–452) were PCR-amplified and cloned into pET24a (Novagen) for expression in bacteria. All recombinant proteins contained an additional amino acid sequence of […] at the N-terminal of LBD. After transformation of the bacteria strain BL21DE3 GOLD (Agilent) with the plasmids, 10 to 20 L cultures were grown to 1 OD and recombinant protein expression was induced overnight at 16°C with 0.2mM isopropyl-beta-D-thiogalactopyranoside (IPTG) (Corning). […]. His-tagged proteins were collected with Ni-NTA resin (Qiagen) and purified with a HiTrap Q HP column (GE Life Sciences) eluted with a 40 CV gradient of 50-500mM NaCl.
# The ThermoFluor® assay was established to measure the change in protein stability upon binding with compounds. 1-Anilinonaphthalene-8-Sulfonic Acid (1,8-ANS) (Invitrogen) was used as a fluorescent dye to label the test proteins. The assay was performed in polypropylene PCR microplates (TF-0384/k, Abgene) with a final assay of 3 μL reaction mixture per well overlaid with 1 μL silicone oil (Sigma-Aldrich). Assay plates were robotically loaded onto a thermostatically controlled PCR-type thermal block and then heated at a ramp-rate of 1°C/min. Fluorescence emission was initiated by continuous illumination with UV light (LC6, Hamamatsu) via fiber optic with a band-pass filter (380–400 nm) and detected with a CCD camera (Sensys, Roper Scientific) filtered to detect signal of 500 ± 25 nm. Reference wells contained recombinant LBD of RORγt, RORα or RORβ alone, and the assay conditions were as follows: 0.065 mg/mL RORγt LBD, 60 μM 1,8-ANS, 100 mM HEPES pH 7.0, 10 mM NaCl, 2.5 mM GSH, 0.002% Tween- 20; 0.1 mg/mL RORα, 70 μM 1,8-ANS, 25 mM HEPES pH 7.0, 50 mM NaCl, 0.001% Tween-20; 0.08 mg/mL RORβ, 60 μM 1,8-ANS, 50 mM HEPES pH 7.0, 100 mM NaCl, 0.001% Tween-20. All 3 assays were performed in the absence and in the presence of 100 μM co-activator peptide SRC1 ([…], England Peptide custom synthesis). The binding affinity of test compounds was estimated as described previously.
# [8] = system: human CD4 T cells, IL-17A production; assay: Th17 differentiation assay (IL-17A production); format: cell-based; conditions: 72 h
# [9] = system: OP2; assay: Cerep selectivity panel; format: binding
# [10] = system: human CD4 T cells under Th17 conditions; assay: cells; conditions: read-out: Th17 Proliferation (IC50, nM)
# [11] = system: CI Channel; assay: Cerep selectivity panel; format: binding
# [12] = system: GABA; assay: Cerep selectivity panel; format: binding
# [13] = system: ML1; assay: Cerep selectivity panel; format: binding
# [14] = system: SK+ Ca; assay: Cerep selectivity panel; format: binding
# [15] = Homo sapiens, CD4+ T, read-out: Th17 Differentiation (IL-17A production) (IC50, nM)
# [16] = recombinant human LBD, read-out: ThermoFlour Binding Assay (Kd, nM) RORβ
# T3 sequence (P37288 whole entry): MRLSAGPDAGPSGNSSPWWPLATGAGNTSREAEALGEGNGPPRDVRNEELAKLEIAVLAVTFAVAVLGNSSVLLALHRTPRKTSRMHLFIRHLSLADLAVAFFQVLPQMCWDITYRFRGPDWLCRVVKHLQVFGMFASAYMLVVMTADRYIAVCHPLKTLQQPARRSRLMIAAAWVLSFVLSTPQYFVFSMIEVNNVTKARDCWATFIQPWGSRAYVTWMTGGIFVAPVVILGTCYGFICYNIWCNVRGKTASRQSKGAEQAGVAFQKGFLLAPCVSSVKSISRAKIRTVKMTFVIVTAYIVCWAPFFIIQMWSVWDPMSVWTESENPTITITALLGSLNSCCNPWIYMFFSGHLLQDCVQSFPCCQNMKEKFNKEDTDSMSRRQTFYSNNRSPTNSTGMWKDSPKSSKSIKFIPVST
# T5 sequence (P41595 whole entry): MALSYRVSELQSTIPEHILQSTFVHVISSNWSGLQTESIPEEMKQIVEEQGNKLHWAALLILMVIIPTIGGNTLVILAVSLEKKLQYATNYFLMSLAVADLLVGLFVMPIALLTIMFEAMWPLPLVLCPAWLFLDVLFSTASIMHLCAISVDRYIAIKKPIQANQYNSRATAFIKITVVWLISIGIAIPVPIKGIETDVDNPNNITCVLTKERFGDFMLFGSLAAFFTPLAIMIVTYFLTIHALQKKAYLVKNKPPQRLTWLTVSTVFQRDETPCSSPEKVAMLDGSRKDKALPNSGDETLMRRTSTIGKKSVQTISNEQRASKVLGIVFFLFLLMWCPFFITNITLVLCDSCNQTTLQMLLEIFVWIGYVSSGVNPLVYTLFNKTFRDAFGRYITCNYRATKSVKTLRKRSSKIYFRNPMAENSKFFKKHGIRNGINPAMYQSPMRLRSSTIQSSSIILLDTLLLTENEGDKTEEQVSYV
# T6 sequence (P08588 whole entry): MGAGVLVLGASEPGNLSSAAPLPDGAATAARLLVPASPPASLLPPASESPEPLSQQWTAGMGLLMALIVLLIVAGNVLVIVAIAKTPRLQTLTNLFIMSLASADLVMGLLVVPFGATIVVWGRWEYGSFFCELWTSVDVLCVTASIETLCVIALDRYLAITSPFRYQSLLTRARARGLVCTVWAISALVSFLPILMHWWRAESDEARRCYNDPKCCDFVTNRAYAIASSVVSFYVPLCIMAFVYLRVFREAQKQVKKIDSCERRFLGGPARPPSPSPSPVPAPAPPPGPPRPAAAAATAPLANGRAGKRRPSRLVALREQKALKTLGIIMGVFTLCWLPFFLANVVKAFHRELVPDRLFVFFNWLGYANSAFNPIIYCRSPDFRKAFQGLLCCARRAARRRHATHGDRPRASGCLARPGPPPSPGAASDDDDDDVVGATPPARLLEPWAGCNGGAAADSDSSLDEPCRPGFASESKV
# T1 sequence (P41143 whole entry): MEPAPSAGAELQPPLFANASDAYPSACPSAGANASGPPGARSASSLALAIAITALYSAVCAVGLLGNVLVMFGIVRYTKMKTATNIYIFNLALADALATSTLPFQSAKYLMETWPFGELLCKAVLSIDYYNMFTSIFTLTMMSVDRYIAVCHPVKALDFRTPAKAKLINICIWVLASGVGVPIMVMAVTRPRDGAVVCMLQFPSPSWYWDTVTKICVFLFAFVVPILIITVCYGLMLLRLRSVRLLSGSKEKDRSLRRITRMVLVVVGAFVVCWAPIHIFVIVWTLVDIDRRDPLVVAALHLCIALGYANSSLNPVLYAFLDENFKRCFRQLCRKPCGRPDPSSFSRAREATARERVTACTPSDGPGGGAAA
# T2 sequence (P28223 whole entry): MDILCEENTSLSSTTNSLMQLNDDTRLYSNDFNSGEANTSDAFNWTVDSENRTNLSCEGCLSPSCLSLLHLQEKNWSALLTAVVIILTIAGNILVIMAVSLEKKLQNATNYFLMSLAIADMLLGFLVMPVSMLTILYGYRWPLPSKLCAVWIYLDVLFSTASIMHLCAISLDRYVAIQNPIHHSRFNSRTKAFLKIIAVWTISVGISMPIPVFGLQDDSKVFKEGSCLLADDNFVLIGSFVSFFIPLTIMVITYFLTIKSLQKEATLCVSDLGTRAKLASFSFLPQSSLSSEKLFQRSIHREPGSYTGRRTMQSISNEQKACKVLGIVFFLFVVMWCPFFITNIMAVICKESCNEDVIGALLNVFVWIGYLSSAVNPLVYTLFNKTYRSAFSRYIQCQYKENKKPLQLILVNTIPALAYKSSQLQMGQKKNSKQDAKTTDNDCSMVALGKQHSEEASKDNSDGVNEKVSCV
Compound,inhibition at 10 µM [1] [%],inhibition at 10 µM [2] [%],inhibition at 10 µM [3] [%],inhibition at 1 µM [4] [%],inhibition at 10 µM [4] [%],inhibition at 10 µM [5] [%],inhibition at 1 µM [6] [%],inhibition at 10 µM [6] [%],Kd [7] [nM],"IC50 [8, 15] [nM]",% Inhibition at 10µM [9] [%],IC50 [10] [nM],% Inhibition at 1µM [11] [%],% Inhibition at 10µM [11] [%],% Inhibition at 1µM [12] [%],"Kd [7, 16] [nM]",% Inhibition at 10µM [13] [%],% Inhibition at 10µM [14] [%],inhibition at 1 µM [1] [%],% Inhibition at 1µM [13] [%],also measured
CN(C)c1nc2ccc(C(O)(c3ccncc3)c3cncn3C)cc2c(Cl)c1-c1ccccc1 (stereo not drawn) [compound D],36,22,12,8,17,106,3,2,1240,22.2,–,–,–,–,–,–,–,–,–,–,–
COc1nc2ccc([C@@](O)(c3ccc(C)nc3C)c3cnnn3C)cc2c(Cl)c1Cc1ccc(C(F)(F)F)cc1 [compound A],–,–,–,–,–,–,–,–,–,–,37,> 240,26,87,8,4940,39,1,–,–,"% Inhibition at 1µM ([9]; 1 µM): 9%; inhibition at 1 µM ([1]; OP1 (h), 1 µM): 9%; inhibition at 10 µM ([1]; OP1 (h), 10 µM): 27%; inhibition at 10 µM ([2]; 5HT2A (h), 10 µM): 27%; inhibition at 10 µM ([3]; V1 a (h), 10 µM): 19%; inhibition at 1 µM ([4]; 5HT3 (h), 1 µM): 7%; inhibition at 10 µM ([4]; 5HT3 (h), 10 µM): 29%; inhibition at 10 µM ([5]; 5HT2B (h), 10 µM): 43%; inhibition at 1 µM ([6]; Ab1 (h), 1 µM): 0%; inhibition at 10 µM ([6]; Ab1 (h), 10 µM): 10%; IC50 ([8]; human CD4 T cells, 3 days, read-out: Th17 Differentiation (IL-17A production) (IC50)): 3.7 nM"
COc1nc2ccc([C@](O)(c3ccc(Cl)cc3)c3cncn3C)cc2c(Cl)c1Cc1ccc(-n2cccn2)cc1 [B],2,12,10,16,19,–,0,2,> 29900,84.5,10,> 240,24,66,9,–,38,–,6,13,inhibition at 1 µM ([3]; read-out: % Inhibition at 1µM): 10%
COc1nc2ccc([C@@](O)(c3ccccc3)C3CCN(C(C)=O)CC3)cc2c(Cl)c1Cc1ccc(-n2cccn2)cc1 [C],11,–,–,–,18,1,–,–,–,18.3,12,> 240,16,45,–,> 70000,27,5,9,4,inhibition at 1 µM ([5]; read-out: % Inhibition at 1µM): 17.5%; % Inhibition at 10µM ([12]; 10 µM): 12%; % Inhibition at 1µM ([14]; 1 µM): 1%
